Reference: patent US10596263B2, “Pazopanib formulation” (Novartis AG, priority 2011, dated 2020)

Key:
[1] = Physical stability (form conversion) of reconstituted pazopanib suspension, monitored by XRPD; assay type: physicochemical
Description: Regarding the use of buffers, physical stability of the invented suspension was determined to be a function of pH, temperature, buffering system, and buffer strength as shown in Table I (some repeat runs are shown).
By removing the sodium citrate from the buffering system the rate of formation of the citrate salt under both refrigerated and long term storage conditions was impeded. Suspensions containing citric acid and sodium phosphate buffering system at pH 4.0 with buffer strength from 0.05 to 0.20 M and no PVP were all stable up to 43 days at refrigerated conditions. At long term storage conditions of 25° C./60% RH form conversion was detected at day 7 but the citrate salt was first observed on day 20.
Table 4 depicts a qualitatively similar formulation to the exemplary formulation, Example 1. Both formulations were manufactured using the same unit operations and processing parameters. […] At long term storage conditions of 25° C./60% RH or room temperature the physical stability of the comparative suspension monitored by XRPD indicated a mixture of forms were detected at day 7 compared with the exemplary formulation (Table 3) that was stability up to 34 days. It was determined that the use of citric acid and trisodium citrate buffer system speed the conversion to the pazopanib citrate salt. It is believed that this is driven by the smaller buffering capacity of citric acid and trisodium citrate buffer.

[2] = Solubility of pazopanib in water at various pH; assay type: physicochemical
Text: FIG. 2 is a graph showing the solubility of pazopanib in water at various pH.
Based on the pH-solubility curve of pazopanib (FIG. 2) the solubility profile between pH 3 and pH 6 is on a steep slope and therefore, small changes in pH will have a large change in solubility. At the lower pH levels the citrate and monohydrate salts predominate and at the higher pH the freebase predominates. When the suspension is buffered at pH 3.5 and below with citric acid and sodium phosphate buffering system, the drug substance in the suspension changes form to the hydrate and Citrate salts in less than 17 days after reconstitution under refrigerated storage condition 5° C. […] Therefore, the compositions of this invention are such that when reconstituted they preferably provide a suspension with a pH from 2.5 to 4.5, preferably a pH of from 3.0 to 4.2, and most preferably a pH of from 3.5 to 4.0.

[3] = In-vivo exposure of the drug after micronization; conditions: micronized active substance
Text: The pazopanib active substance is preferably micronized. […] Particle size reduction also helps to improve the mouth-feel of the suspension. Micronization may be achieved using techniques known in the art. According to one embodiment, particle size reduction is achieved through the use of fluid energy jet mill wherein the powder gets suspended in a high velocity nitrogen gas stream in a milling chamber, and particle size is reduced due to the principle of impact and attrition due to the high velocity collisions between particles suspended within the nitrogen gas stream, causing them to break down into smaller particles. Centrifugal force causes the larger, heavy particles to separate from smaller, lighter particles. The small particles are dragged by the escaping fluid stream towards the center of the mill, where they are discharged into filter bags, and the material is then collected into drums. The large particles are thrown outward where they recirculate and re-collide, causing them to breakdown. According to one embodiment, the resulting particle size distribution of pazopanib hydrochloride particles is >90% between 0.61 and 10.0 microns. In another embodiment, at least 50% is from 1 to 10 microns, preferably from 1.1 to 3.9 microns. In another embodiment 90% is 20 microns or less, preferably 10 microns or less.

[4] = Citric Acid/Sodium Citrate 0.2M, initial pH 4.0, PVP 0% wt/wt, 5° C./Ambient
[5] = Citric Acid/Sodium Citrate 0.5M, initial pH 4.0, PVP 0% wt/wt, 25° C./60% RH
[6] = Citric Acid/Sodium Phosphate 0.1M, initial pH 4.0, PVP 0% wt/wt, 25° C./60% RH
[7] = Citric Acid/Sodium Phosphate 0.2M, initial pH 4.0, PVP 0% wt/wt, 25° C./60% RH
[8] = citric acid and sodium phosphate buffer, pH 4.0, 0.05 to 0.20 M, no PVP, 25° C./60% RH

Physical Stability ([1]; Citric Acid/Sodium Citrate 0.05M, initial pH 4.0, PVP 0% wt/wt, 5° C./Ambient): 43 days
Physical Stability: conversion to citrate salt by day [1, 4]: by day 42
Physical Stability: mixture of forms by day [1, 4]: day 21;
Physical Stability: conversion to citrate salt by day ([1]; Citric Acid/Sodium Citrate 0.2M, initial pH 4.0, PVP 0% wt/wt, 25° C./60% RH): day 7
Physical Stability: conversion to citrate salt by day ([1]; Citric Acid/Sodium Citrate 0.5M, initial pH 4.0, PVP 0% wt/wt, 5° C./Ambient): day 14
Physical Stability: conversion to citrate salt by day [1, 5]: day 14
Physical Stability: mixture of forms at [1, 5]: initial;
Physical Stability ([1]; Citric Acid/Sodium Phosphate 0.05M, initial pH 4.0, PVP 0% wt/wt, 5° C./Ambient): 43 days
Physical Stability ([1]; Citric Acid/Sodium Phosphate 0.05M, initial pH 4.0, PVP 0% wt/wt, 25° C./60% RH): At least 7 Days;
Physical Stability ([1]; Citric Acid/Sodium Phosphate 0.1M, initial pH 4.0, PVP 0% wt/wt, 5° C./Ambient): 43 days
Physical Stability [1, 6]: At least 7 Days;
Physical Stability: mixture of forms by day [1, 6]: day 20
Physical Stability: conversion to citrate salt by day ([1]; Citric Acid/Sodium Phosphate 0.2M, initial pH 3.0, PVP 0% wt/wt, 5° C./Ambient): day 17
Physical Stability: conversion to citrate salt by day ([1]; Citric Acid/Sodium Phosphate 0.2M, initial pH 3.2, PVP 0% wt/wt, 5° C./Ambient): day 17
Physical Stability: conversion to citrate salt by day ([1]; Citric Acid/Sodium Phosphate 0.2M, initial pH 3.5, PVP 0% wt/wt, 5° C./Ambient): day 17
Physical Stability ([1]; Citric Acid/Sodium Phosphate 0.2M, initial pH 4.0, PVP 0% wt/wt, 5° C./Ambient): 43 days
Physical Stability [1, 7]: At least 7 Days;
Physical Stability: conversion to citrate salt by day [1, 7]: day 20
Physical Stability ([1]; PVP added, citric acid and sodium phosphate, pH 4.0, buffering strength 0.05 M): at least 20 days
pazopanib monohydrochloride salt maintained until ([1]; PVP levels between 3.8 to 7.4% w/w, inclusive, citric acid and sodium phosphate, pH 4.0, 0.05 M): 34 days
drug substance changes form to the hydrate and Citrate salts after reconstitution ([1]; buffered at pH 3.5 and below, citric acid and sodium phosphate, refrigerated 5° C.): less than 17 days
form conversion started on day ([1]; citric acid and sodium citrate buffer, pH 4.0, buffer strength 0.05 M to 0.5 M, 5° C.): ≥ 14 days
Conversion of pazopanib to the citrate salt observed at ([1]; citric acid and sodium citrate buffer, pH 4.0, buffer strength 0.05 M to 0.5 M, 25° C./60% RH): initial to day 7
citrate salt first observed on day [1, 8]: 20 days
form conversion detected at day [1, 8]: 7 days
stable (physical stability of suspension) ([1]; citric acid and sodium phosphate buffer, pH 4.0, 0.05 to 0.20 M, no PVP, refrigerated conditions): up to 43 days
pH-solubility profile ([2]; between pH 3 and pH 6, water (FIG. 2)): steep slope
solubility, effect of micronization ([2]; micronized active substance): enhance
in-vivo exposure, effect of micronization [3]: enhance
Structure (SMILES): Cc1ccc(Nc2nccc(N(C)c3ccc4c(C)n(C)nc4c3)n2)cc1S(N)(=O)=O [pazopanib, 5-[[4-[(2,3-dimethyl-2H-indazol-6-yl)methylamino]-2-pyrimidinyl]amino]-2-methylbenzenesulfonamide]
